Measurements as given in patent US20040147495A1, “Sapogenin derivatives, their synthesis and use, and methods based upon their use” (priority 2001, published 2004).

How the values were obtained:
Sprague Dawley rats = experiment: Alzheimer's disease model (amyloid β + ibotenic acid): step-through test; type: in vivo, rat; details: for Step through test Error No: 18 mg/kg/day by gastric tube for two months, wrong responses in 5 min, * p < 0.05; for number of wrong responses in step-through test (in words): 18 mg/kg/day, 5 min
Source text: (§1) In addition the co-injection of amyloid β with a small amount of ibotenic acid into the rat hippocampus synergistically produces neuronal loss with infiltration of glial cells not only adjacent but also far from the injected site (Morimoto et al., 1998: Neuroscience, 84, 479-487).
(§2) Our studies used the method of Morimoto (Morimoto et al., 1998: Neuroscience, 84, 479-487) with some modifications (unilateral instead of bilateral injection). Three months old, Sprague Dawley rats, were randomly divided into different groups. Injection of amyloid β1-40 and ibotenic acid (both from Sigma) was accomplished by means of a stereotaxic instrument (Stoelting Co.) and the coordinates were AP=−0.5 mm […], L=−2.8 mm […], H=−7.0 mm (ventral to dura). The dose for each rat was amyloid β1-40 (4 μg) and ibotenic acid (1 μg) in 1 μl of saline. The injection was completed in 20 min, and the needle was withdrawn 10 min later. Then the skin was sutured.
(§3) Episarsasapogenin cathylate, sarsasapogenin cathylate, episarsasapogenin ethylsuccinate (comparison compound), episarsasapogenin, epismilagenin and diosgenin (all at a dosage of 18 mg/kg/day) were administered to animals as stable suspensions in CMC-Na (0.5%) once daily through a gastric tube. The control and the Alzheimer's model group were given the same volume of CMC-Na (0.5%) once daily. The drugs and vehicles were given for a period of two months, starting 20 days before operation.
The effect of test compounds on memory was assessed using the step-through test. A 60×15×15 cm box, divided into 2 equally sized rooms, one dark room with copper rod base, which was electrically charged (40 V ac) when in use, while the other was a light room but not electrically charged. Between the two rooms there is an opening (hole) for the rat to go through. The experiment is carried out for each rat on two consecutive days. The first day is for training; when the rat is adapted in the box for the first 3 min, then put in the light room, with its back toward the hole, and the copper rods of the dark room are charged for 5 min. The second day is for testing, when the number of crosses in 5 min are recorded. Improvements in memory are signalled by a reduction in the number of crosses.

muscarinic receptor [1] = experiment: Alzheimer's disease model (amyloid β + ibotenic acid): brain muscarinic receptor density by 3H-QNB; type: in vivo, rat; details: Alzheimer's model rats; for brain muscarinic receptor density (in words): 18 mg/kg/day; for Muscarinic receptor Density: 18 mg/kg/day by gastric tube for two months, * p < 0.05
Source text: as §1, §2, §3
The brain samples were homogenised, centrifuged, and the pellet of centrifugation at 27000×g was re-homogenised and used for measurement. The concentration of ^3H-QNB was chosen at the saturation range. After incubation and separation, the bound portion was measured by liquid scintillation counter.

β2 adrenoceptors = experiment: CHO-β2/m3 co-transfected cell line: β2 adrenoceptor density ([3H]CGP); type: cell-based, Chinese hamster; details: day 5
Protocol: (§4) Chinese hamster ovary (CHO) cells expressing high levels of muscarinic receptor (˜2.2 pmol mg protein^−1) were plated on a 24 well plate, 1 day before the start of the experiment. The culture medium was replaced with medium containing vehicle (DMSO) or the compounds.
(§5) The cells were incubated for 2/3 days, then after a medium change, cells were incubated for a further 2/3 days. The cells were incubated with a saturating concentration of labelled N-methyl-scopolamine, ([^3H]NMS). Cells were washed with ice cold phosphate-buffered saline (PBS) (3×) and bound [^3H]NMS determined by solubilising receptors with RIPA buffer followed by liquid scintillation counting.
(§6) The results shown in FIG. 5 used a CHO cell line co-transfected to express both β2 adrenoceptors and m3 muscarinic receptors. To measure the β2 and m3 receptor density, both [^3H]NMS and [^3H]CGP were used.

m3 muscarinic receptors = experiment: CHO-β2/m3 co-transfected cell line: m3 receptor density ([3H]NMS); type: cell-based, Chinese hamster; details: day 5
Protocol: as §4, §5, §6

muscarinic receptor [2] = experiment: Cell based assay: muscarinic receptor number in transfected CHO cells by [3H]NMS binding; parameters: species or system Chinese hamster; details: CHO cells expressing muscarinic receptor
Source text: Chinese hamster ovary (CHO) cells transfected with a vector coding for a muscarinic receptor and/or beta adrenoreceptor. The cell line used for the majority of the experiments was a cell line expressing a muscarinic receptor.
The effects of epismilagenin cathylate, sarsasapogenin cathylate, episarsasapogenin cathylate, episarsasapogenin succinate, epismilagenin acetate and sarsasapogenin on the expression of m receptors in CHO cells transfected with vector for the m receptor were investigated. Receptor numbers were assayed using [^3H]NMS binding and subtracting non-specific binding. Compounds were dissolved in dimethyl sulphoxide (DMSO) and DMSO was used as a control.
as §4, §5

muscarinic receptor [3] = experiment: Muscarinic receptor density in brain of aged rats (dual-site competitive 3H-QNB binding); type: in vivo, rat; details: 18 mg kg−1 day−1 in food for three months
Protocol: (§7) Aged Sprague-Dawley rats aged were divided randomly into 4 groups, one control and groups treated for three months with either sarsasapogenin, episarsasapogenin cathylate or smilagenin (18 mg kg^−1 day^−1, n=10). A control group (n=14) of untreated young rats was also included in the study. The daily dose of drug was mixed in a minimum amount of food and was administered every morning separately to each rat.
Tissue preparation: Brains were removed quickly after decapitation, frozen in dry ice, and transferred to a freezer. The brains were homogenised and the pellet was finally suspended in buffer.
Dual-site competitive ligand binding assay: ^3H-QNB (quinuclinidyl benzilate) was used as the radio-ligand which was non-selective to M receptor subtypes in vitro. Pirenzipine was used as the selective non-radioactive competing agent. Protein concentration was determined by the micro-Lowry method.

[4] = system: rat primary cortical neurons; experiment: Neuroprotection against glutamate-induced neurodegeneration (LDH release); type: cell-based; details: rat primary cortical cultures pre-treated for 24 h, read 24 h after glutamate
Protocol: Rat cortical neurons were cultured for 10 days; at day 10 the medium was changed to a serum-free defined medium. On day 12, 24 hours before glutamate exposure, cultures were washed and medium was replaced with fresh medium containing positive control (β-oestradiol), test compounds (sarsasapogenin, episarsasapogenin cathylate or smilagenin) or vehicle control (DMSO, 0.25%).
On day 13, cultures were exposed to glutamate.
After the incubation period, the cultures were washed with and placed in fresh medium, supplemented with relevant compounds or vehicle to evaluate their protective effects, 24 h after glutamate exposure.
Neuronal cell survival was evaluated by measuring lactate dehydrogenase (LDH) activity released in the media 24 h after test compound treatment or glutamate+test compound exposure, using the CytoTox 96 non-radioactive kit and quantitated by measuring wavelength absorbance at 450 nm.

Aged Sprague-Dawley rats = experiment: Y-maze learning and memory test in aged rats; type: in vivo, rat; details: 18 mg kg−1 day−1 in food for three months
Protocol: as §7
A Y-maze apparatus was used for the learning and memory test. On the floor of each arm of the Y-maze is an array of copper rods to which electric current is applied whenever needed, with adjustable voltage. Each arm is 45 cm long and has a 15 W lamp at the end, which is turned on when needed. After 3 months drug administration, each rat was trained for 7 consecutive days, as follows. For each training session, the rat was put into one arm of the Y-maze, after two minutes rest, an electrical current was applied to the copper rods and the lamp of the clockwise arm was illuminated to indicate the non-stimulation area. If the rat went into that arm, one correct response was recorded, otherwise, one wrong response was recorded. This stimulation-response test was repeated 20 times each day, with a pause of 5 sec between each two consecutive tests. The number of correct responses following the twenty tests on the seventh day was used to express learning ability, (the higher the number the better the learning ability). The rats were then left resting for 30 days and the procedure was repeated once more. The number of correct responses of the 20 tests after the 30 day rest period was used to represent the memory ability

SMILES	Step through test Error No (Sprague Dawley rats)	number of wrong responses in step-through test (in words) (Sprague Dawley rats)	brain muscarinic receptor density (in words) (muscarinic receptor [1])	Muscarinic receptor Density (muscarinic receptor [1])	decrease in β2 adrenoceptors (β2 adrenoceptors)	density of m3 receptors (m3 muscarinic receptors)	effect on decrease in muscarinic receptor number over the culturing period (muscarinic receptor [2])	muscarinic receptor number in brain (muscarinic receptor [3])	glutamate-induced neurodegeneration (LDH release) [4]	learning and memory ability (Y-maze) (Aged Sprague-Dawley rats)
CCOC(=O)CCC(=O)OC1CCC2(C)C(CCC3C2CCC2(C)C3CC3OC4(CCC(C)CO4)C(C)C32)C1 (stereo not shown) [episarsasapogenin ethylsuccinate, reference compound]	3.73 ± 1.35	ineffective in decreasing the number of wrong responses	did not significantly change the muscarinic receptor density	774 ± 79 fmol/mg/protein						
CC(=O)OC1CCC2(C)C(CCC3C2CCC2(C)C3CC3OC4(CCC(C)CO4)C(C)C32)C1 (stereo not shown) [epismilagenin acetate]					significantly prevented	did not significantly alter the density of m3 receptors				
CCOC(=O)O[C@H]1CC[C@@]2(C)[C@H](CC[C@@H]3[C@@H]2CC[C@]2(C)[C@@H]4[C@H](C[C@@H]32)O[C@]2(CC[C@H](C)CO2)[C@H]4C)C1 [sarsasapogenin cathylate, 3-Ethoxycarbonyl 5β,20α,22α,25S-spirostan-3-β-ol]	1.36 ± 1.03*	significantly decreased the number of wrong responses	significant elevation in brain muscarinic receptor density	916 ± 158* fmol/mg/protein			prevents the decrease in muscarinic receptor number			
C[C@H]1CC[C@@]2(OC1)O[C@H]1C[C@H]3[C@@H]4CC[C@@H]5C[C@H](O)CC[C@]5(C)[C@H]4CC[C@]3(C)[C@H]1[C@@H]2C [episarsasapogenin]	1.50 ± 1.18*	significantly decreased the number of wrong responses	significant elevation in brain muscarinic receptor density	869 ± 104* fmol/mg/protein						
CC1CCC2(OC1)OC1CC3C4CCC5CC(OC(=O)CCC(=O)O)CCC5(C)C4CCC3(C)C1C2C (stereo not drawn) [episarsasapogenin succinate, mono-3α,5β,20α,22α,25S-spirostanyl succinate]							prevents the decrease in muscarinic receptor number			
CCOC(=O)O[C@@H]1CC[C@@]2(C)[C@H](CC[C@@H]3[C@@H]2CC[C@]2(C)[C@@H]4[C@H](C[C@@H]32)O[C@]2(CC[C@H](C)CO2)[C@H]4C)C1 [episarsasapogenin cathylate, 3-Ethoxycarbonyl 5β,20α,22α,25S-spirostan-3α-ol]	1.36 ± 0.92*	significantly decreased the number of wrong responses	significant elevation in brain muscarinic receptor density	877 ± 89* fmol/mg/protein			prevents the decrease in muscarinic receptor number	significantly restored the muscarinic receptor number	significant reduction in the glutamate-induced neurodegeneration	restored the learning and memory ability
CCOC(=O)O[C@@H]1CC[C@@]2(C)[C@H](CC[C@@H]3[C@@H]2CC[C@]2(C)[C@@H]4[C@H](C[C@@H]32)O[C@]2(CC[C@@H](C)CO2)[C@H]4C)C1 [epismilagenin cathylate, 3-Ethoxycarbonyl 5β,20α,22α,25R-spirostan-3α-ol]							prevents the decrease in muscarinic receptor number			
C[C@H]1CC[C@@]2(OC1)O[C@H]1C[C@H]3[C@@H]4CC[C@@H]5C[C@@H](O)CC[C@]5(C)[C@H]4CC[C@]3(C)[C@H]1[C@@H]2C [sarsasapogenin]							prevents the decrease in muscarinic receptor number	significantly restored the muscarinic receptor number	significant reduction in the glutamate-induced neurodegeneration	restored the learning and memory ability
C[C@@H]1CC[C@@]2(OC1)O[C@H]1C[C@H]3[C@@H]4CC[C@@H]5C[C@@H](O)CC[C@]5(C)[C@H]4CC[C@]3(C)[C@H]1[C@@H]2C [smilagenin]								significantly restored the muscarinic receptor number	significant reduction in the glutamate-induced neurodegeneration	restored the learning and memory ability
C[C@@H]1CC[C@@]2(OC1)O[C@H]1C[C@H]3[C@@H]4CC=C5C[C@@H](O)CC[C@]5(C)[C@H]4CC[C@]3(C)[C@H]1[C@@H]2C [diosgenin, reference compound]	3.75 ± 1.49	ineffective in decreasing the number of wrong responses	did not significantly change the muscarinic receptor density	770 ± 68 fmol/mg/protein						
C[C@@H]1CC[C@@]2(OC1)O[C@H]1C[C@H]3[C@@H]4CC[C@@H]5C[C@H](O)CC[C@]5(C)[C@H]4CC[C@]3(C)[C@H]1[C@@H]2C [epismilagenin]	1.73 ± 0.91*	significantly decreased the number of wrong responses	significant elevation in brain muscarinic receptor density	877 ± 90* fmol/mg/protein						
